Data from patent publication US11312724B2 (ASCENTAGE PHARMA (SUZHOU) CO., LTD., priority 2021, dated 2022).

Tests used:
MIA PaCa-2 cell = test: Cell proliferation assay (Celltiter-Glo), MIA PaCa-2; format: cell-based; settings: Homo sapiens, MIA PaCa-2, 72 h, 3 days
Experimental: (§1) Cell Proliferation Assay:
(§2) NCI-H358 cell and MIA PaCa-2 cell was cultured in RPMI-1640 supplemented with 10% FBS in humidified incubator at 37° C., 5% CO2. To asses the effect of Compounds of the Disclosure on cell proliferation, exponentially growing cells (5000 cells/well) were plated onto 96-well plates. After cell seeding, a representative Compounds of the Disclosure were added to the cell media (in concentrations ranging from 0 to 10 μM, 3/dilution series). After 3 days, 30 μL Celltiter-Glo reagent was added, and the luminescent signal was determined according to supplier's instruction. The dose response curves and IC50 values were generated using Prism.

NCI-H358 cell = test: Cell proliferation assay (Celltiter-Glo), NCI-H358; format: cell-based; settings: Homo sapiens, NCI-H358, 72 h, 3 days
Experimental: as §1, §2

Row | IC50 (MIA PaCa-2 cell) [nM] | IC50 (NCI-H358 cell) [nM] | SMILES
1 | 110 | 160 | C=CC(=O)N1CCN(c2nc(OC[C@@H]3CCCCN3C)nc3c2CCC2(CCCc4ccccc42)C3)C[C@@H]1CC#N (stereo partly drawn) [Cpd. No. 18, 2-((2S)-1-acryloyl-4-(2′-(((S)-1-methylpiperidin-2-yl)methoxy)-3,4,5′,8′-tetrahydro-2H,6′H-spiro[naphthalene-1,7′-quinazolin]-4′-yl)piperazin-2-yl)acetonitrile]
2 | 110 | 130 | C=CC(=O)N1CCN(c2nc(OCCCN3CCOCC3)nc3c2CCC2(CCCc4ccccc42)C3)C[C@@H]1CC#N (stereo partly drawn) [Cpd. No. 19, 2-((2S)-1-acryloyl-4-(2′-(3-morpholinopropoxy)-3,4,5′,8′-tetrahydro-2H,6′H-spiro[naphthalene-1,7′-quinazolin]-4′-yl)piperazin-2-yl)acetonitrile]
3 | 46 | 72 | C=CC(=O)N1CCN(c2nc(OC[C@@H]3CN(C)CCO3)nc3c2CCC2(CCCc4ccccc42)C3)C[C@@H]1CC#N (stereo partly drawn) [Cpd. No. 20, 2-((2S)-1-acryloyl-4-(2′-(((S)-4-methylmorpholin-2-yl)methoxy)-3,4,5′,8′-tetrahydro-2H,6′H-spiro[naphthalene-1,7′-quinazolin]-4′-yl)piperazin-2-yl)acetonitrile]
4 | 440 | 470 | C=CC(=O)N1CCN(c2nc(OC[C@@H]3CCCN3C)nc3c2CCC2(CCOc4ccccc42)C3)C[C@@H]1CC#N (stereo partly drawn) [Cpd. No. 21, 2-((2S)-1-acryloyl-4-(2′-(((S)-1-methylpyrrolidin-2-yl)methoxy)-5′,8′-dihydro-6′H-spiro[chromane-4,7′-quinazolin]-4′-yl)piperazin-2-yl)acetonitrile]
5 | 490 | 940 | C=CC(=O)N1CCN(c2nc(OC[C@@H]3CCCN3C)nc3c2CCC2(CCOc4c(Cl)cccc42)C3)C[C@@H]1CC#N (stereo partly drawn) [Cpd. No. 22, 2-((2S)-1-acryloyl-4-(8-chloro-2′-(((S)-1-methylpyrrolidin-2-yl)methoxy)-5′,8′-dihydro-6′H-spiro[chromane-4,7′-quinazolin]-4′-yl)piperazin-2-yl)acetonitrile]
6 | 740 | 1240 | C=CC(=O)N1CCN(c2nc(OC[C@@H]3CCCN3C)nc3c2CCC2(CCOc4c(Cl)cc(Cl)cc42)C3)C[C@@H]1CC#N (stereo partly drawn) [Cpd. No. 23, 2-((2S)-1-acryloyl-4-(6,8-dichloro-2′-(((S)-1-methylpyrrolidin-2-yl)methoxy)-5′,8′-dihydro-6′H-spiro[chromane-4,7′-quinazolin]-4′-yl)piperazin-2-yl)acetonitrile]
7 | 6 | 11 | C=CC(=O)N1CCN(c2nc(OC[C@@H]3CCCN3C)nc3c2CCC2(COCc4ccccc42)C3)C[C@@H]1CC#N (stereo partly drawn) [Cpd. No. 24, 2-((2S)-1-acryloyl-4-(2′-(((S)-1-methylpyrrolidin-2-yl)methoxy)-5′,8′-dihydro-6′H-spiro[isochromane-4,7′-quinazolin]-4′-yl)piperazin-2-yl)acetonitrile]
8 | 1280 | 1840 | C=CC(=O)N1CCN(c2nc(OC[C@@H]3CCCN3C)nc3c2CCC2(C3)CC(C)Oc3ccccc32)C[C@@H]1CC#N (stereo partly drawn) [Cpd. No. 25, 2-((2S)-1-acryloyl-4-(2-methyl-2′-(((S)-1-methylpyrrolidin-2-yl)methoxy)-5′,8′-dihydro-6′H-spiro[chromane-4,7′-quinazolin]-4′-yl)piperazin-2-yl)acetonitrile]
9 | 19 | 55 | C=CC(=O)N1CCN(c2nc(OC[C@@H]3CCCN3C)nc3c2CCC2(COCc4cccc(F)c42)C3)C[C@@H]1CC#N (stereo partly drawn) [Cpd. No. 27, 2-((2S)-1-acryloyl-4-(5-fluoro-2′-(((S)-1-methylpyrrolidin-2-yl)methoxy)-5′,8′-dihydro-6′H-spiro[isochromane-4,7′-quinazolin]-4′-yl)piperazin-2-yl)acetonitrile]
10 | 4780 | 2060 | C=CC(=O)N1CCN(c2nc(OC[C@@H]3CCCN3C)nc3c2CCC2(C3)CN(C)Cc3ccccc32)C[C@@H]1CC#N (stereo partly drawn) [Cpd. No. 30, 2-((2S)-1-acryloyl-4-(2-methyl-2′-(((S)-1-methylpyrrolidin-2-yl)methoxy)-2,3,5′,8′-tetrahydro-1H,6′H-spiro[isoquinoline-4,7′-quinazolin]-4′-yl)piperazin-2-yl)acetonitrile]
11 | > 10000 | > 10000 | C=CC(=O)N1CCN(c2nc(OC[C@@H]3CCCN3C)nc3c2CCC2(C3)CS(=O)(=O)Cc3ccccc32)C[C@@H]1CC#N (stereo partly drawn) [Cpd. No. 31, 2-((2S)-1-acryloyl-4-(2′-(((S)-1-methylpyrrolidin-2-yl)methoxy)-2,2-dioxido-5′,8′-dihydro-6′H-spiro[isothiochromane-4,7′-quinazolin]-4′-yl)piperazin-2-yl)acetonitrile]
12 | 22 | 83 | C=CC(=O)N1CCN(c2nc(OC[C@@H]3CCCN3C)nc3c2CCC2(COC(C)c4ccccc42)C3)C[C@@H]1CC#N (stereo partly drawn) [Cpd. No. 32, 2-((2S)-1-acryloyl-4-(1-methyl-2′-(((S)-1-methylpyrrolidin-2-yl)methoxy)-5′,8′-dihydro-6′H-spiro[isochromane-4,7′-quinazolin]-4′-yl)piperazin-2-yl)acetonitrile]
13 | 30 | 45 | C=CC(=O)N1CCN(c2nc(OC[C@@H]3CCCN3C)nc3c2CCC2(COC(C(F)(F)F)c4ccccc42)C3)C[C@@H]1CC#N (stereo partly drawn) [Cpd. No. 33, 2-((2S)-1-acryloyl-4-(2′-(((S)-1-methylpyrrolidin-2-yl)methoxy)-1-(trifluoromethyl)-5′,8′-dihydro-6′H-spiro[isochromane-4,7′-quinazolin]-4′-yl)piperazin-2-yl)acetonitrile]
14 | 750 | 1350 | C=CC(=O)N1CCN(c2nc(OC[C@@H]3CCCN3C)nc3c2CCC2(COC(C)(C)c4ccccc42)C3)C[C@@H]1CC#N (stereo partly drawn) [Cpd. No. 34, 2-((2S)-1-acryloyl-4-(1,1-dimethyl-2′-(((S)-1-methylpyrrolidin-2-yl)methoxy)-5′,8′-dihydro-6′H-spiro[isochromane-4,7′-quinazolin]-4′-yl)piperazin-2-yl)acetonitrile]
15 | 20 | 43 | C=CC(=O)N1CCN(c2nc(OC[C@@H]3CCCN3C)nc3c2CCC2(COC(C)c4c(F)cccc42)C3)C[C@@H]1CC#N (stereo partly drawn) [Cpd. No. 35, 2-((2S)-1-acryloyl-4-(8-fluoro-1-methyl-2′-(((S)-1-methylpyrrolidin-2-yl)methoxy)-5′,8′-dihydro-6′H-spiro[isochromane-4,7′-quinazolin]-4′-yl)piperazin-2-yl)acetonitrile]
16 | 160 | 260 | C=C(F)C(=O)N1CCN(c2nc(OC[C@@H]3CCCN3C)nc3c2CCC2(COC(C)c4c(F)cccc42)C3)C[C@@H]1CC#N (stereo partly drawn) [Cpd. No. 36, 2-((2S)-4-(8-fluoro-1-methyl-2′-(((S)-1-methylpyrrolidin-2-yl)methoxy)-5′,8′-dihydro-6′H-spiro[isochromane-4,7′-quinazolin]-4′-yl)-1-(2-fluoroacryloyl)piperazin-2-yl)acetonitrile]
17 | > 10000 | > 10000 | C=CC(=O)N1CCN(c2nc(OC[C@@H]3CCCN3C)nc3c2CCC2(C3)CN(C)C(=O)c3ccccc32)C[C@@H]1CC#N (stereo partly drawn) [Cpd. No. 37, 2-((2S)-1-acryloyl-4-(2-methyl-2′-(((S)-1-methylpyrrolidin-2-yl)methoxy)-1-oxo-2,3,5′,8′-tetrahydro-1H,6′H-spiro[isoquinoline-4,7′-quinazolin]-4′-yl)piperazin-2-yl)acetonitrile]
18 | 93 | 290 | C=CC(=O)N1CCN(c2nc(OC[C@@H]3CCCN3C)nc3c2CCC2(C3)CC3(CC3)c3c(F)cccc32)C[C@@H]1CC#N (stereo partly drawn) [Cpd. No. 38, 2-((2S)-1-acryloyl-4-(4′-fluoro-2″-(((S)-1-methylpyrrolidin-2-yl)methoxy)-5″,8″-dihydro-2′H,6″H-dispiro[cyclopropane-1,3′-indene-1′,7″-quinazolin]-4″-yl)piperazin-2-yl)acetonitrile]
19 | 370 | 670 | C=CC(=O)N1CCN(c2nc(OC[C@@H]3CCCN3C)nc3c2CCC2(C3)c3cccc(F)c3C3CC32)C[C@@H]1CC#N (stereo partly drawn) [Cpd. No. 39, 2-((2S)-1-acryloyl-4-(2-fluoro-2′-(((S)-1-methylpyrrolidin-2-yl)methoxy)-1a,5′,6a,8′-tetrahydro-1H,6′H-spiro[cyclopropa[a]indene-6,7′-quinazolin]-4′-yl)piperazin-2-yl)acetonitrile]
20 | 440 | 560 | COC/C=C/C(=O)N1CCN(c2nc(OC[C@@H]3CCCN3C)nc3c2CCC2(CCc4ccccc42)C3)C[C@@H]1CC#N (stereo partly drawn) [Cpd. No. 40, 2-((2S)-1-((E)-4-methoxybut-2-enoyl)-4-(2′-(((S)-1-methylpyrrolidin-2-yl)methoxy)-2,3,5′,8′-tetrahydro-6′H-spiro[indene-1,7′-quinazolin]-4′-yl)piperazin-2-yl)acetonitrile]
21 | 91 | 320 | CN1CCC[C@H]1COc1nc2c(c(N3CCN(C(=O)/C=C/CN4CC(F)C4)[C@@H](CC#N)C3)n1)CCC1(CCc3ccccc31)C2 (stereo partly drawn) [Cpd. No. 41, 2-((2S)-1-((E)-4-(3-fluoroazetidin-1-yl)but-2-enoyl)-4-(2′-(((S)-1-methylpyrrolidin-2-yl)methoxy)-2,3,5′,8′-tetrahydro-6′H-spiro[indene-1,7′-quinazolin]-4′-yl)piperazin-2-yl)acetonitrile]

Row | SMILES | IC50 (MIA PaCa-2 cell) [nM] | IC50 (NCI-H358 cell) [nM]
22 | C=CC(=O)N1C2CCC1CN(c1nc(OC[C@@H]3CCCN3C)nc3c1CCC1(COCc4cccc(F)c41)C3)C2 (stereo partly drawn) [Cpd. No. 29, 1-(3-(5-fluoro-2′-(((S)-1-methylpyrrolidin-2-yl)methoxy)-5′,8′-dihydro-6′H-spiro[isochromane-4,7′-quinazolin]-4′-yl)-3,8-diazabicyclo[3.2.1]octan-8-yl)prop-2-en-1-one] | > 10000 | 8100
